Data on two compounds can be found in PMC9856672, “SGC-CAMKK2-1: A Chemical Probe for CAMKK2” (Cells, 2023).

One test has as its target T1, TIE1 (Homo sapiens, UniProt P35590).
T1 construct: purchased Eurofins DiscoverX KINOMEscan
The test is described as follows: KINOMEscan 1 μM, TIE1. It is filed as binding. The note with it: 1000 nM; Entrez TIE1; read-out: Percent Control. An excerpt:
(§1) Supplement cells-12-00287-s001.zip/File S2. KinomeScan data for the CAMKK2 probe and negative control.xlsx, sheet "SGC-CAMKK2-1" | column: Percent Control

A further test addresses T2, CASK (Homo sapiens, UniProt O14936).
T2 construct: purchased Eurofins DiscoverX KINOMEscan
The experiment in a line: KINOMEscan 1 μM, CASK. It is filed as binding. To be noted: 1000 nM; Entrez CASK; read-out: Percent Control.
From the text: as §1

In the next test the target is T3, CLK2 (Homo sapiens, UniProt P49760).
T3 construct: purchased Eurofins DiscoverX KINOMEscan
T3 sequence (P49760 whole entry): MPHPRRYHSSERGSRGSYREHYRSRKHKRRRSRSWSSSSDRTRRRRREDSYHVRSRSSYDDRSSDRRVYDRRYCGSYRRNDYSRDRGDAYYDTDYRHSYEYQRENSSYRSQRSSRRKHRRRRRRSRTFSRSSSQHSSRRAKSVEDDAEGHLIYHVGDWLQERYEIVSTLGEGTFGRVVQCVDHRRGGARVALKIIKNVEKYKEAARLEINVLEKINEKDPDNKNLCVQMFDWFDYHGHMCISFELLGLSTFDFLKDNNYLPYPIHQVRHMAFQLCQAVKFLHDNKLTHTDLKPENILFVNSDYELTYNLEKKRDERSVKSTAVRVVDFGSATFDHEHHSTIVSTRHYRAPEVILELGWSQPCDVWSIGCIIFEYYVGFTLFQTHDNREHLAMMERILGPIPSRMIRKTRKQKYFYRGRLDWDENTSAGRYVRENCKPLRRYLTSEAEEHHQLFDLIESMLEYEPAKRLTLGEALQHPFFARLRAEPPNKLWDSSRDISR
The test is described as follows: KINOMEscan 1 μM, CLK2. It is filed as binding. The note with it: 1000 nM; Entrez CLK2; read-out: Percent Control.
From the text: as §1

In another test the target is T4, PKN1 (Homo sapiens, UniProt Q16512).
T4 construct: purchased Eurofins DiscoverX KINOMEscan
The test is described as follows: KINOMEscan 1 μM, PKN1. It is filed as binding. The note with it: 1000 nM; Entrez PKN1; read-out: Percent Control.
From the text: as §1

A further test has as its target T5, INSRR (Homo sapiens, UniProt P14616).
T5 construct: purchased Eurofins DiscoverX KINOMEscan
The test is described as follows: KINOMEscan 1 μM, INSRR. The class given is binding. The note with it: 1000 nM; Entrez INSRR; read-out: Percent Control.
From the text: as §1

In another test the target is T6, MEK3 (Homo sapiens, UniProt P46734).
T6 construct: purchased Eurofins DiscoverX KINOMEscan
T6 sequence (P46734 whole entry): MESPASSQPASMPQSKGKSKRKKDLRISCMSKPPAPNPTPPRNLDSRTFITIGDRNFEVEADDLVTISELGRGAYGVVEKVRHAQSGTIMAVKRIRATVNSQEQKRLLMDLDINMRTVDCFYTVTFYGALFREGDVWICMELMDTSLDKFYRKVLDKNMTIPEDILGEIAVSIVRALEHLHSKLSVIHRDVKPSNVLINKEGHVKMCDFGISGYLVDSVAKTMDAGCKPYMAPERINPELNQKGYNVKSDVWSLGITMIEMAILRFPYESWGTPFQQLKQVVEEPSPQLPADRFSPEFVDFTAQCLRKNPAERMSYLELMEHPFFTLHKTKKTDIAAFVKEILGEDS
The experiment in a line: KINOMEscan 1 μM, MEK3. To be noted: 1000 nM; Entrez MAP2K3; read-out: Percent Control. It is filed as binding.
From the text: as §1

The target in test [1] is T7, DCAMKL2 (Homo sapiens, UniProt Q8N568).
T7 construct: purchased Eurofins DiscoverX KINOMEscan
T7 sequence (Q8N568 whole entry): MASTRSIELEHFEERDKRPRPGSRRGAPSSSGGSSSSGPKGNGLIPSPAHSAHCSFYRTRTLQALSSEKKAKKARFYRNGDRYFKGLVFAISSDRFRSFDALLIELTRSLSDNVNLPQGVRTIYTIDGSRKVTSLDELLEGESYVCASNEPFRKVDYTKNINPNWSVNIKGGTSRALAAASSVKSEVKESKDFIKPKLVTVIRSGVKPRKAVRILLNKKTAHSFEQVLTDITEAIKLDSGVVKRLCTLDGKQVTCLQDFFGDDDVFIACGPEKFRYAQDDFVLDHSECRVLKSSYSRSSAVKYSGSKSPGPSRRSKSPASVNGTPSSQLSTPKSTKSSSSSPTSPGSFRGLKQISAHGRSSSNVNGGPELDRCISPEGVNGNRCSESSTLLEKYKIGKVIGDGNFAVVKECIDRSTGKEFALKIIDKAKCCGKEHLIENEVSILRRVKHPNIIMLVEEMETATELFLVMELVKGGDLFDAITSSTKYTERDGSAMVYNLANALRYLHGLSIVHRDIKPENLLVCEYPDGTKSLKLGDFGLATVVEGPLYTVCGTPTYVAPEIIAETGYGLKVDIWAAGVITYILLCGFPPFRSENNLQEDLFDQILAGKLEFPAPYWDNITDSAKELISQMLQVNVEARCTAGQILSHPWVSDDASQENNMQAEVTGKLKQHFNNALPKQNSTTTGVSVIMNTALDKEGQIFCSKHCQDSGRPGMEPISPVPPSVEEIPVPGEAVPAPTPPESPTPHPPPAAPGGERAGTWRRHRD
The experiment in a line: KINOMEscan 1 μM, DCAMKL2. The class given is binding. To be noted: 1000 nM; Entrez DCLK2; read-out: Percent Control.
From the text: as §1

A further test deals with T8, BMPR2 (Homo sapiens, UniProt Q13873).
T8 construct: purchased Eurofins DiscoverX KINOMEscan
The experiment in a line: KINOMEscan 1 μM, BMPR2. The note with it: 1000 nM; Entrez BMPR2; read-out: Percent Control. It is filed as binding.
From the text: as §1

The next test has as its target T9, CDC2L5 (Homo sapiens, UniProt Q14004).
T9 construct: purchased Eurofins DiscoverX KINOMEscan
The experiment in a line: KINOMEscan 1 μM, CDC2L5. The note with it: 1000 nM; Entrez CDK13; read-out: Percent Control. The class given is binding.
From the text: as §1

The target in a further test is T10, CIT (Homo sapiens, UniProt O14578).
T10 construct: purchased Eurofins DiscoverX KINOMEscan
The experiment in a line: KINOMEscan 1 μM, CIT. The class given is binding. To be noted: 1000 nM; Entrez CIT; read-out: Percent Control.
From the text: as §1

In another test the target is T11, CLK4 (Homo sapiens, UniProt Q9HAZ1).
T11 construct: purchased Eurofins DiscoverX KINOMEscan
The test is described as follows: KINOMEscan 1 μM, CLK4. It is filed as binding. The note with it: 1000 nM; Entrez CLK4; read-out: Percent Control.
From the text: as §1

A further test concerns the target T12, FLT3-autoinhibited (Homo sapiens, UniProt P36888).
T12 construct: purchased Eurofins DiscoverX KINOMEscan
The experiment in a line: KINOMEscan 1 μM, FLT3-autoinhibited. The note with it: 1000 nM; Entrez FLT3; read-out: Percent Control. The class given is binding.
From the text: as §1

Another test addresses T13, GRK1 (Homo sapiens, UniProt Q15835).
T13 construct: purchased Eurofins DiscoverX KINOMEscan
The test is described as follows: KINOMEscan 1 μM, GRK1. It is filed as binding. The note with it: 1000 nM; Entrez GRK1; read-out: Percent Control.
From the text: as §1

Another test has as its target T14, LYN (Homo sapiens, UniProt P07948).
T14 construct: purchased Eurofins DiscoverX KINOMEscan
The experiment in a line: KINOMEscan 1 μM, LYN. It is filed as binding. The note with it: 1000 nM; Entrez LYN; read-out: Percent Control.
From the text: as §1

The target of another test is T15, PFCDPK1(P.falciparum) (Plasmodium falciparum, UniProt P62344).
T15 construct: purchased Eurofins DiscoverX KINOMEscan
T15 sequence (P62344 whole entry): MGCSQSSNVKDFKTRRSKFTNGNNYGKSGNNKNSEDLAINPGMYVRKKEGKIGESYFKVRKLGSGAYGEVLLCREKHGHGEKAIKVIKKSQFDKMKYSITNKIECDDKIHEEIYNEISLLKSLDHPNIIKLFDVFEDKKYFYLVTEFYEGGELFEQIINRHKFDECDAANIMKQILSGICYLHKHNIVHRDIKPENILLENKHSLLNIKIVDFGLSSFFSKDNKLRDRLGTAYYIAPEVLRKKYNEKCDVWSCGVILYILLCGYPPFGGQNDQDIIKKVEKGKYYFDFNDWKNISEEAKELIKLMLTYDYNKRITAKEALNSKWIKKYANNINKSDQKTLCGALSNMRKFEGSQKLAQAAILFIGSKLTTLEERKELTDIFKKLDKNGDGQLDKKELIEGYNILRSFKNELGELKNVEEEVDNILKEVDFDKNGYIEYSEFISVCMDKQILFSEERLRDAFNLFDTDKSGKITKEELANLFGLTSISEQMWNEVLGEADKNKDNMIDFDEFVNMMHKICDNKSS
The test is described as follows: DiscoverX KINOMEscan binding assay at 1 μM, PFCDPK1(P.falciparum). The note with it: PFCDPK1(P.falciparum) (CDPK1); Compound Concentration 1000 nM; read-out: Percent Control.
From the text: as §1

The target in the next test is T16, PKN2 (Homo sapiens, UniProt Q16513).
T16 construct: purchased Eurofins DiscoverX KINOMEscan
The test is described as follows: DiscoverX KINOMEscan binding assay at 1 μM, PKN2. To be noted: Compound Concentration 1000 nM, read-out: Percent Control.
From the text: as §1

The target of the next test is T17, VPS34 (Homo sapiens, UniProt Q8NEB9).
T17 construct: purchased Eurofins DiscoverX KINOMEscan
The test is described as follows: DiscoverX KINOMEscan binding assay at 1 μM, VPS34. To be noted: VPS34 (PIK3C3); Compound Concentration 1000 nM; read-out: Percent Control.
From the text: as §1

Test [2] has as its target T18, ABL1(F317I)-nonphosphorylated (Homo sapiens, UniProt P00519, F317I).
T18 construct: purchased Eurofins DiscoverX KINOMEscan
The experiment in a line: KINOMEscan at 1 μM, ABL1(F317I)-nonphosphorylated. To be noted: 1000 nM, read-out: Percent Control. The class given is binding. The text has this:
(§2) Supplement cells-12-00287-s001.zip/File S2. KinomeScan data for the CAMKK2 probe and negative control.xlsx, sheet "SGC-CAMKK2-1N" | column: Percent Control

The next test concerns the target T19, MEK5 (Homo sapiens, UniProt Q13163).
T19 construct: purchased Eurofins DiscoverX KINOMEscan
The experiment in a line: KINOMEscan at 1 μM, MEK5. It is filed as binding. To be noted: 1000 nM, read-out: Percent Control.
From the text: as §2

A further test deals with T20, ULK2 (Homo sapiens, UniProt Q8IYT8).
T20 construct: purchased Eurofins DiscoverX KINOMEscan
The experiment in a line: KINOMEscan at 1 μM, ULK2. The class given is binding. The note with it: 1000 nM, read-out: Percent Control.
From the text: as §2

The target in a further test is T21, NEK7 (Homo sapiens, UniProt Q8TDX7).
T21 construct: purchased Eurofins DiscoverX KINOMEscan
The experiment in a line: KINOMEscan at 1 μM, NEK7. It is filed as binding. The note with it: 1000 nM, read-out: Percent Control.
From the text: as §2

In a further test the target is T22, PLK1 (Homo sapiens, UniProt P53350).
T22 construct: purchased Eurofins DiscoverX KINOMEscan
The test is described as follows: KINOMEscan at 1 μM, PLK1. The note with it: 1000 nM, read-out: Percent Control. It is filed as binding.
From the text: as §2

For test [3], the target named is T23, JAK2(JH1domain-catalytic) (Homo sapiens, UniProt O60674).
T23 construct: JAK2(JH1domain-catalytic); purchased Eurofins DiscoverX KINOMEscan
The test is described as follows: KINOMEscan at 1 μM, JAK2(JH1domain-catalytic). To be noted: 1000 nM, read-out: Percent Control. It is filed as binding.
From the text: as §2

In test [4] the target is T24, RPS6KA5(Kin.Dom.2-C-terminal) (Homo sapiens, UniProt O75582).
T24 construct: RPS6KA5(Kin.Dom.2-C-terminal); purchased Eurofins DiscoverX KINOMEscan
T24 sequence (O75582 388-802 limits assumed): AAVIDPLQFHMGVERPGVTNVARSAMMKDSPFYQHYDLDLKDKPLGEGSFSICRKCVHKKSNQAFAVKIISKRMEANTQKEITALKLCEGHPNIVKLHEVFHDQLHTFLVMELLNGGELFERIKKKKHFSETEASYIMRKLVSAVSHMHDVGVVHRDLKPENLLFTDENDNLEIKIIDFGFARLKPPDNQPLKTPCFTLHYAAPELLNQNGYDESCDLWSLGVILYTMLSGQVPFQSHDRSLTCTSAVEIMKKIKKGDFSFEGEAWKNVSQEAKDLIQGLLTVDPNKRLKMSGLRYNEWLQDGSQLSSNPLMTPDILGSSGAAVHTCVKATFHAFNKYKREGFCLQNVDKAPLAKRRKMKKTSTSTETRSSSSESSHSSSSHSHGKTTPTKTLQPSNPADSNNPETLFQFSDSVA
The test is described as follows: KINOMEscan at 1 μM, RPS6KA5(Kin.Dom.2-C-terminal). The note with it: 1000 nM, read-out: Percent Control. The class given is binding.
From the text: as §2

A further test addresses T25, PLK2 (Homo sapiens, UniProt Q9NYY3).
T25 construct: purchased Eurofins DiscoverX KINOMEscan
The experiment in a line: KINOMEscan at 1 μM, PLK2. The class given is binding. To be noted: 1000 nM, read-out: Percent Control.
From the text: as §2

Another test addresses T26, AXL (Homo sapiens, UniProt P30530).
T26 construct: purchased Eurofins DiscoverX KINOMEscan
The experiment in a line: KINOMEscan at 1 μM, AXL. To be noted: 1000 nM, read-out: Percent Control. It is filed as binding.
From the text: as §2

The target in test [5] is T7, DCAMKL2. The test is described as follows: KINOMEscan at 1 μM, DCAMKL2. The class given is binding. The note with it: 1000 nM, read-out: Percent Control.
From the text: as §2

The target in another test is T27, ERBB2 (Homo sapiens, UniProt P04626).
T27 construct: purchased Eurofins DiscoverX KINOMEscan
The test is described as follows: KINOMEscan binding assay at 1 μM, ERBB2. To be noted: Compound Concentration 1000 nM; read-out: Percent Control.
From the text: as §2

For the next test, the target named is T28, MAP3K15 (Homo sapiens, UniProt Q6ZN16).
T28 construct: purchased Eurofins DiscoverX KINOMEscan
The experiment in a line: KINOMEscan binding assay at 1 μM, MAP3K15. To be noted: Compound Concentration 1000 nM; read-out: Percent Control.
From the text: as §2

The target of another test is T29, PIK3C2G (Homo sapiens, UniProt O75747).
T29 construct: purchased Eurofins DiscoverX KINOMEscan
The experiment in a line: KINOMEscan binding assay at 1 μM, PIK3C2G. To be noted: Compound Concentration 1000 nM; read-out: Percent Control.
From the text: as §2

The next test has as its target T30, PIK3CD (Homo sapiens, UniProt O00329).
T30 construct: purchased Eurofins DiscoverX KINOMEscan
The test is described as follows: KINOMEscan binding assay at 1 μM, PIK3CD. To be noted: Compound Concentration 1000 nM; read-out: Percent Control.
From the text: as §2

A further test deals with T31, PRKCD (Homo sapiens, UniProt Q05655).
T31 construct: purchased Eurofins DiscoverX KINOMEscan
T31 sequence (Q05655 whole entry): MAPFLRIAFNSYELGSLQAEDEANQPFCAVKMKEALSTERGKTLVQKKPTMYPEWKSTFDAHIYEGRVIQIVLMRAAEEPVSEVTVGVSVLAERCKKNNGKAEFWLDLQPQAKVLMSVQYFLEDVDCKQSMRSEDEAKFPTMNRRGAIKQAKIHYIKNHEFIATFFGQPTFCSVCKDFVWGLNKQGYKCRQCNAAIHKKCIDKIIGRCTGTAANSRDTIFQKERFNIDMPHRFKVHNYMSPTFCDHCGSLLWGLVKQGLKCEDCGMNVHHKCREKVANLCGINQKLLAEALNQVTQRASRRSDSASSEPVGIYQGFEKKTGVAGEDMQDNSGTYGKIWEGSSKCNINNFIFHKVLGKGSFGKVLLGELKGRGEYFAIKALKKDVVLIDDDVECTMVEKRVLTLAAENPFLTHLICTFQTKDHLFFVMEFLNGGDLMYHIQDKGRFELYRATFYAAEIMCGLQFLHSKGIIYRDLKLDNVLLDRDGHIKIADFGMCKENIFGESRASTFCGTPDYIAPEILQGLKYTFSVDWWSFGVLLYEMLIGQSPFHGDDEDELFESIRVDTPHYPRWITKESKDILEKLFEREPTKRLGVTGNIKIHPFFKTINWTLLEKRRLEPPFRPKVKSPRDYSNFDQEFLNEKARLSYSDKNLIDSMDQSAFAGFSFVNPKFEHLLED
The test is described as follows: KINOMEscan binding assay at 1 μM, PRKCD. The note with it: Compound Concentration 1000 nM; read-out: Percent Control.
From the text: as §2

The next test concerns the target T32, SYK (Homo sapiens, UniProt P43405).
T32 construct: purchased Eurofins DiscoverX KINOMEscan
The test is described as follows: KINOMEscan binding assay at 1 μM, SYK. To be noted: Compound Concentration 1000 nM; read-out: Percent Control.
From the text: as §2

T25 sequence (Q9NYY3 whole entry): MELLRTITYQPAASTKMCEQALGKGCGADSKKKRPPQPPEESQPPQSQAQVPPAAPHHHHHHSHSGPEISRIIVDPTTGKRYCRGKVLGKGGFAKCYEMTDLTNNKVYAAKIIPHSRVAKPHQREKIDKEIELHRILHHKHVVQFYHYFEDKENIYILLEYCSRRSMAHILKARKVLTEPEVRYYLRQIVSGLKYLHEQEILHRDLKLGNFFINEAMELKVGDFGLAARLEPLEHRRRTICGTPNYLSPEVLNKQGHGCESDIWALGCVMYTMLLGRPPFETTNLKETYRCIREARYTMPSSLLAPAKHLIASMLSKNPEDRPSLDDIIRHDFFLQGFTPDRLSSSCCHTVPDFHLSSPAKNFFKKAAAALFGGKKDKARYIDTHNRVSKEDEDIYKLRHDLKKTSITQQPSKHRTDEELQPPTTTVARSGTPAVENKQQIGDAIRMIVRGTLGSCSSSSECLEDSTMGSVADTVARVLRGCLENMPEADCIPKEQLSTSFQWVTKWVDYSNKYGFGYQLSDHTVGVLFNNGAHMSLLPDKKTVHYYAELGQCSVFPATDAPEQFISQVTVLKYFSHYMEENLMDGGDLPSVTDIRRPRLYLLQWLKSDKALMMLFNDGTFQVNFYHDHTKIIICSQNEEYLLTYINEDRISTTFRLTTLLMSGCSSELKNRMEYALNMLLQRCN
T13 sequence (Q15835 whole entry): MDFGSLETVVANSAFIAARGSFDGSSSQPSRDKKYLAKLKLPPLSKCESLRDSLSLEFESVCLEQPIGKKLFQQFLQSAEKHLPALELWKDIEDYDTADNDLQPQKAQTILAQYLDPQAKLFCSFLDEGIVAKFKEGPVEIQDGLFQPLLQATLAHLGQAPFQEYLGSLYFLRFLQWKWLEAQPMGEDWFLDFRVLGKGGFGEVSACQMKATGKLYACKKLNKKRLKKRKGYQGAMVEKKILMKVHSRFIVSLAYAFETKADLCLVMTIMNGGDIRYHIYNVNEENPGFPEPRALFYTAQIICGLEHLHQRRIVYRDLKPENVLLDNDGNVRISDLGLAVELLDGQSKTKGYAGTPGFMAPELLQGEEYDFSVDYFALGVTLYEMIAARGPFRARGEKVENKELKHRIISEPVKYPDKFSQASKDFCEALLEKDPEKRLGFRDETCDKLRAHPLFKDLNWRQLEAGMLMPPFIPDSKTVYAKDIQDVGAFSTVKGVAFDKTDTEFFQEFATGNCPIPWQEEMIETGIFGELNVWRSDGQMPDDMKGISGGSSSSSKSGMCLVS
T14 sequence (P07948 whole entry): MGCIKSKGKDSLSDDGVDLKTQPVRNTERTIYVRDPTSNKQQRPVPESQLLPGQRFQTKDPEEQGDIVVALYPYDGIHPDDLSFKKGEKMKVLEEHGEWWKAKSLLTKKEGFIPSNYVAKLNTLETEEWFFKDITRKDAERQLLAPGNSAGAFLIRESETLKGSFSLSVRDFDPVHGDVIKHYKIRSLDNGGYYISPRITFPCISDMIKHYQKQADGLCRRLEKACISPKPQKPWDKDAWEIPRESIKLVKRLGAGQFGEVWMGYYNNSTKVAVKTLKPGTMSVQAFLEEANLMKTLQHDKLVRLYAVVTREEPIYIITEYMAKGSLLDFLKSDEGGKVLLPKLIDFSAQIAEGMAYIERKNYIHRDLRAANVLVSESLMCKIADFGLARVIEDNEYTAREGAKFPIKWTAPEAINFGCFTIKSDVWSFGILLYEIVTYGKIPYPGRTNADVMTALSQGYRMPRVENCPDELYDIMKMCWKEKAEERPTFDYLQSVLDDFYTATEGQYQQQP

In the case of `Cc1cccc(-c2cnc3occ(-c4ccc(C(=O)O)c(C5CCCC5)c4)c3c2)c1` [SGC-CAMKK2-1 (YL-36)], the remaining binding at 1 µM at TIE1 was determined as 77%; at CASK it was 79%; on CLK2 it was 79%; at PKN1, 84%; on INSRR, 88%; at MEK3, 91%. Moreover, the remaining binding at 1 µM on DCAMKL2 [1] was found to be 94%; on BMPR2, 100%; on CDC2L5 it was 100%; at CIT, 100%; on CLK4, 100%; on FLT3-autoinhibited it was 100%. Moreover, the remaining binding at 1 µM at GRK1, on LYN, at PFCDPK1(P.falciparum), on PKN2 and at VPS34 was 100% throughout.
`O=C(O)c1ccc(-c2coc3ncc(-c4ccccc4)cc23)cc1Cl` [SGC-CAMKK2-1N (UNC-YL-83)]: the remaining binding at 1 µM in [2] is 37%; at MEK5, 67%; on ULK2 it was 71%; at NEK7, 78%; at PLK1, 79%; in test [3], 80%. Further, the remaining binding at 1 µM in test [4] was 82%; on PLK2, 91%; on AXL, 94%; on DCAMKL2 [5] it was 100%; on ERBB2, 100%; at MAP3K15 it was 100%. For the same compound, the remaining binding at 1 µM on PIK3C2G, on PIK3CD, on PRKCD and on SYK was 100% each time.
